Measurements taken from a melting point compilation (Tetko et al.; mined from patent text by program, amines drawn as free bases though some values may be those of a salt).

Row | melting point [°C] | Structure (SMILES)
1 | 136 | CCn1cc(C(=O)O)c(=O)c2cnc(N3CCN(Cc4ccc(OC)cc4)CC3)nc21
2 | 125 to 128 | COCc1cc([N+](=O)[O-])ccc1N1C(=O)c2ccc(Cl)cc2C1=O
3 | 163 to 164 | CC(C)(C)n1cc(-c2ccc(N(C=O)c3ccccc3)cc2)c2cncnc21
4 | 161 to 162 | CCCCc1nnc(SCC(=O)OC)n1Cc1ccc(NC(=O)c2ccccc2C(=O)O)cc1
5 | 210 to 213 | COc1ccc2[nH]cc(C3=CCC(N4CCN(c5cccc(Cl)n5)CC4)CC3)c2c1 (stereo not drawn)
6 | 205 to 206 | CS(=O)(=O)c1ccc(-c2cnn(CC(=O)c3ccc(C(F)(F)F)cc3)c(=O)c2-c2ccc(F)cc2)cc1
7 | 93 to 96 | O=C(c1ccc(Oc2cccc3ccccc23)cc1)C(O)O
8 | 50 to 60 | CCOC(=O)CCNC(=O)N1CCn2c(c(C(N)=O)c(Cl)c2-c2ccccc2)C1
9 | 212 to 214 | O=c1[nH]c2c(cc1-c1nnc(C3CC3)o1)CN(Cc1ccccc1)CC2
10 | 172 to 174 | COc1ccc2c(c1)Sc1cc(OC(C)=O)c(OC)cc1N2
11 | 47 to 49 | COC(=O)c1ccc(Sc2cccc(OCCCCl)c2)cc1
12 | 188 to 190 | CC(=O)C1=C(O)C(C(=O)C=Cc2ccc(C)cc2)C(=O)OC1=O (stereo not drawn)
13 | 145 to 146 | O=C(O)c1cc(OCCCc2cc(-c3ccc(C(F)(F)F)cc3)no2)nn1-c1ccccc1
14 | 120 to 123 | COc1cc(C=O)c(OC)c2ccccc12
15 | 70 to 72 | OCc1cccnc1Oc1ccc(F)cc1
16 | 153 | Nc1cccc(O)c1Cl
17 | 124 to 127 | CN1CCN(c2cccc3c2C[C@H](NC(=O)c2ccc(C(=O)N4CCOCC4)cc2)CC3)CC1
18 | 211 to 213 | CCNC(=O)NS(=O)(=O)c1cc2c(cc1OC)OCCC2CNC(=O)c1cc(Cl)ccc1OC (stereo not drawn)
19 | 290 | O=C(Nc1ccc(F)cc1F)c1nc(Cl)c(Cl)[nH]1
20 | 146 to 148 | Cc1ccc(-c2cc(C)c3c(c2)C(C)CC(=O)N3)c(C)n1 (stereo not drawn)
21 | 212 to 213 | CCc1cnc(NC(=O)C2c3ccccc3Oc3ccccc32)o1
22 | 203 to 205 | COc1ccc(C(=O)C(C(=O)Nc2ccccc2Cl)N2C(=O)c3ccccc3C2=O)cc1[N+](=O)[O-] (stereo not drawn)
23 | 199 to 200 | Cc1cnc(C(=O)c2[nH]c3cc(Cl)ccc3c2CC(=O)O)c(C)c1
24 | 137 to 138 | O=C(O)CCCOc1cccc2c1Cc1sc(SCC(c3ccccc3)c3ccccc3)nc1-2
25 | 125 to 126 | O=C(O)CCCn1ccnc1

Row | melting point [°C] | Structure (SMILES)
26 | 60 | COc1cccc(N(C(=O)c2ccc(Br)s2)C2CC2)c1
27 | 155 to 157 | O=C(c1cc(O)c(O)c([N+](=O)[O-])c1)c1cccs1
28 | 110 to 112 | CCCCCCCCCCCC(=O)Oc1ccc(-c2nc(-c3ccc(N(C)C)cc3)c(C)[nH]2)cc1OC
29 | 235 to 237 | O=C(O)c1ccc(N2C(=O)CCC2C(=O)O)c([N+](=O)[O-])c1 (stereo not drawn)
30 | 242 to 247 | CC(=O)OC12Oc3c(C(C)(C)C)cc(C(C)(C)C)cc3C1(OC(C)=O)C(=O)c1ccccc12 (stereo not drawn)
31 | 84 to 86 | CCCCOC(=O)c1cn2ccnc2s1
32 | 92 to 93 | CCC(CC)O[C@@H]1C=C(C(=O)OC)C[C@H](CC(O)CN=[N+]=[N-])[C@H]1NC(C)=O (stereo partly drawn)
33 | 154 to 155 | CCOC1=C(C(=O)O)CN(C2CCCCC2)C1=O
34 | 188 to 189 | CCCc1nc2c(N)nc3cc(C)ccc3c2o1
35 | 202 to 204 | CC(=O)Nc1cc(Cc2ccc3c(C(=O)Nc4ccc(CN5CCN(C)CC5)c(C(F)(F)F)c4)cccc3c2)ncn1
36 | 230 to 232 | Cc1nc(Nc2ccc(Cl)cc2)sc1-c1nc2ccccc2c(=O)n1-c1ccccc1
37 | 105 to 106 | CSc1ccc(C=C2C=CC=C2)cc1
38 | 193 to 194 | CCc1cc(C)cc(CC)c1C1C(=O)N2CCOCCN2C1=O
39 | 128 to 130 | CCn1ncc2c(Cl)c3c(nc21)C(O)c1ccccc1CC3 (stereo not drawn)
40 | 218 to 222 | CC(C)(C)OC(=O)N1CC2CCCCC(C1)C2C(=O)O (stereo not drawn)
41 | 188 to 190 | CCOC(=O)c1ccc2[nH]c3c(c2c1)CC(N(C)C)CC3 (stereo not drawn)
42 | 95 to 97 | CC(NC(=O)c1cc(OCC(F)(F)F)ccc1OCC(F)(F)F)C1CCCCN1 (stereo not drawn)
43 | 173 to 175 | O=C(O)Cc1nsc(NC(=O)c2ccccc2)n1
44 | 113 | CCCNC(=O)c1ccc2c(c1)N(C(C)CN1CCCCCC1)c1ccccc1S2 (racemic)
45 | 94 to 95 | COc1cccc(CC(=O)O)c1OCCCc1cn(-c2ccc(C(F)(F)F)cn2)nc1C(C)(C)C
46 | 100 | Cc1cccc(C(O)CN2CCNC2=S)c1 (stereo not drawn)
47 | 155 | CN1CCC(C2(O)c3ccccc3C=Cn3ccnc32)CC1 (stereo not drawn)
48 | 90 to 92 | CCOC(=O)C(C(=O)OCC)C(N)c1ccc(Cl)cc1C(N)C(C(=O)OCC)C(=O)OCC (stereo not drawn)
49 | 161 to 162 | COc1cc(/C=C2/C(=O)OC(=O)C2=C(C)C)cc(OC)c1
50 | 70 to 71 | C[C@@H]1CCCN1CCCN1CCN(CCN2CCCCC2)C1=C(C#N)C#N

Row | melting point [°C] | Structure (SMILES)
51 | 163 | CCC1(C2CCCC2)Cc2cc(OC)c(Cl)c(Cl)c2C1=O (stereo not drawn)
52 | 85 to 87 | C=CCNc1c([N+](=O)[O-])ccc(Oc2ccc(C#N)cc2)c1Cl
53 | 125 to 126 | Clc1ncc(Cl)c(-c2ccc(Cl)c(Cl)c2)n1
54 | 203 to 205 | COc1cccc([C@H]2O[C@H](CC(=O)Nc3ncc(CCC(=O)O)s3)C(=O)N(CC(C)(C)CO)c3ccc(Cl)cc32)c1OC
55 | 200 to 202 | c1cc(COc2ccc3ccccc3c2)cc(-c2nnn[nH]2)c1
56 | 178 | N#Cc1ccc(-c2ccc(F)cc2)nc1Cl
57 | 198 | CC(C)(N)C(=O)NCCn1ccc2ncnc(Nc3ccc(Oc4cccc5sncc45)c(Cl)c3)c21
58 | 150 | CC1(C)CC(=O)C(C(=O)Nc2cccc(C(F)(F)F)c2)C(=O)O1 (stereo not drawn)
59 | 212 to 215 | Nc1ccc(C(=O)N2CCC[C@@H]3CCCC[C@H]32)cc1[N+](=O)[O-] (relative stereo)
60 | 118 | CC(C)(C)OC(=O)Nc1ccc(-c2cccc(F)c2F)cc1NC(=O)CC(=O)c1cccc(C#N)c1
61 | 232 to 233 | CCCc1ccc2nc(S(=O)(=O)CC)c(S(N)(=O)=O)n2n1
62 | 61 to 62 | CCN(CC)CCn1c(=Nc2ccccc2)sc2ncccc2c1=O
63 | > 250 | COc1cc2c(Nc3ccc(Br)cc3F)ncnc2cc1OCCCS(C)(=O)=O
64 | 151 to 152 | CCN(CC)C(N)=C(C#N)C(N)=S
65 | 91 to 92 | CCOC(=O)C=Cc1ccc(CCNS(=O)(=O)CCc2ccc(Cl)cc2)cc1
66 | 98 to 99 | Cc1ccnc2c(Oc3ccccc3[N+](=O)[O-])cccc12
67 | 119 to 122 | N=C(N)NCCOc1ccc2c(c1)CC(CCC(=O)O)C(=O)N2 (stereo not drawn)
68 | 73 to 74 | C[C@@H]1OC=C[C@H](NC(=O)C(F)(F)F)[C@@]1(O)OC(=O)C(F)(F)F
69 | 111 | Cc1ccc(S(=O)(=O)N(C)CC(=O)N2CCC[C@H]2C=O)cc1
70 | 65 to 66.5 | CN(Cc1ccc(Cl)cc1)C(=O)C12CC3CC(CC(C3)C1)C2
71 | 128 to 130 | C/C=C(\c1ccccc1)c1cc2cc(OC)ccc2[nH]1
72 | 173 to 174 | C[C@@H]([C@H](O)c1ccc(O)cc1)N1CCC(O)(Cc2ccccc2)CC1 (relative stereo)
73 | 114 | O=C1c2ccc(Nc3ccc(F)cc3F)cc2CCc2ccc(OCCCN3CCOCC3)cc21
74 | 204 to 206 | Clc1ncnc2c1ncn2-n1cccc1
75 | 113 to 115 | CC(C)(C)c1cc(OCCCCCCc2nnn[nH]2)cc(C(C)(C)C)c1

Row | melting point [°C] | Structure (SMILES)
76 | 207 | CS(=O)(=O)c1cccc(NC(=O)c2cnn3c(C(F)F)cc(-c4ccc(C(F)(F)F)c(OCC(F)(F)F)c4)nc23)c1
77 | 135 to 137 | COC(=O)CC(Nc1ccccc1OC)c1cc2ccccc2nc1Cl (stereo not drawn)
78 | 188 to 190 | CCOC(=O)COc1cc(OC)c2c(c1S(N)(=O)=O)OC1(CCCCC1)CC2=O
79 | 83 to 85 | O=C1CCC(N2CCN(Cc3ccccc3)CC2)CC1
80 | 300 | O=C(NCc1ccn(-c2cc3nc(C(=O)O)c(=O)[nH]c3cc2C(F)(F)F)c1)Nc1cccc(C(=O)O)c1
81 | 130 to 136 | CN(C)S(=O)(=O)c1ccc2ccc3ccccc3c(=O)c2c1
82 | 198 to 199 | Cn1cc(-c2cccc(N3CCc4c(sc5c4CCCC5)C3=O)c2CO)nc(Nc2cnn(CCO)c2)c1=O
83 | 235 to 236 | C=CCNc1nc(NCc2ccccc2)c2cc([N+](=O)[O-])ccc2n1
84 | 110 | COc1ccc2c(c1)c(CCc1cc(=O)n(C3CCCCC3)[nH]1)c(C)n2C(=O)c1ccc(Cl)cc1
85 | 92 to 93 | c1cc2c3c(ccc(OCCCN4CCCCC4)c3c1)-c1cc(OCCCN3CCCCC3)ccc1-2
86 | 177 to 179 | Cc1cc(C)c(C(C(N)=O)C(N)=O)c(C)c1
87 | 54 to 56 | COC(=O)CCCn1sc(Cl)cc1=O
88 | 103 | COc1cc(-c2ccc(C3C(CCC(O)c4ccc(F)cc4)C(=O)N3c3ccc(F)cc3)cc2)cc(OC)c1OC (stereo not drawn)
89 | 107 | CCCCc1ccc(-c2cc(Cl)c(C#N)cn2)cc1
90 | 170 to 171 | CN1CCC(N=[N+]=[N-])(c2ccccc2)C(O)C1 (stereo not drawn)
91 | > 250 | O=C(O)c1[nH]c2cc(Cl)cc(Cl)c2c1C=C1CON(c2ccccc2)C1=O
92 | 142 to 145 | Clc1cc(-c2cc3ccccc3s2)nc2ccccc12
93 | 189 to 190 | N#CCC1(c2onc(-c3ccc(O)cc3)c2-c2ccccc2)CC1
94 | 226 to 229 | CCc1ccc(N2CCCN(c3cc[nH]c(=S)c3C#N)CC2)cc1
95 | 360 | O=c1[nH]c(=O)c2cccnc2[nH]1
96 | 244 to 246 | O=C(O)c1cn(-c2ccc(F)cc2F)c2cc(Cl)c(F)c(Cl)c2c1=O
97 | 189 to 190 | Cc1cc(C)c2nc(C3CC3)n(Cc3ccc(C(CC(=O)O)c4ccccc4)cc3)c2n1 (stereo not drawn)

Row | Structure (SMILES) | melting point [°C]
98 | COC(=O)c1nc(-c2ccccc2)n2c1CN=C(c1ccccc1Cl)c1cc(Cl)ccc1-2 | 272 to 275
